US4659696A, “Pharmaceutical composition and its nasal or vaginal use” (Takeda Chemical Industries, Ltd., priority 1982, dated 1987)

Legend:
Format in all cases: in vivo, rat
[1] = test system: plasma glucose level; assay: Plasma glucose level after nasal administration of insulin to rats; settings: before administration=100
Description: Male SD strain rats (body weights 250 g, approx.) fasted for 16 hours are used in groups of at least 3 animals. Each animal is anesthetized with pentobarbital and administered nasal medication in accordance with the method described in International Journal of Pharmaceutics 7, 317 (1981). Then, 0.1 ml/kg of insulin solution is directly administered into the nasal cavity with a micropipette via the nostril.
The insulin solution used is a mixed solution of 10 U or 20 U of porcine insulin (about 0.2 mg or […]) and 0 mg to 10 mg [which correspond to 0 to 10%] of α-, β- or γ-cyclodextrin in 0.1 ml of an isotonic buffer solution (pH 7.4).
As control, insulin is intravenously administered and plasma glucose levels are determined in the manner as above.

[2] = test system: plasma glucose level; assay: Plasma glucose level after rectal insulin suppository in rats; settings: rectal Witepsol W-35 suppository, insulin 50 IU/kg, before administration=100
Excerpt: The results, which are shown in Table 11, indicate that the addition of α- or β-cyclodextrin results in an increased absorption of insulin.

[3] = test system: plasma glucose level; assay: Plasma glucose level after vaginal administration of insulin to rats; settings: for Plasma glucose level (%): just before administration=100; for reduction in the area under the plasma glucose level-time curve within 6 hours after administration: mean±standard error
[4] = test system: plasma glucose level; assay: Plasma glucose level after rectal administration of insulin solution to rats; settings: insulin 50 IU/kg, before administration=100

Substance: insulin: porcine insulin
- Change (%) in plasma glucose level ([1]; intranasal, insulin 10 U/Kg, no cyclodextrin, 1 hr.): 93.7%
- Change (%) in plasma glucose level ([1]; intranasal, insulin 10 U/Kg, no cyclodextrin, 2 hr.): 99.3%
- Change (%) in plasma glucose level ([1]; intranasal, insulin 10 U/Kg, no cyclodextrin, 4 hr.): 103.0%
- Change (%) in plasma glucose level ([1]; intranasal, insulin 10 U/Kg, α-cyclodextrin 3%, 1 hr.): 73.5%
- Change (%) in plasma glucose level ([1]; intranasal, insulin 10 U/Kg, α-cyclodextrin 3%, 2 hr.): 59.7%
- Change (%) in plasma glucose level ([1]; intranasal, insulin 10 U/Kg, α-cyclodextrin 3%, 4 hr.): 62.9%
- Change (%) in plasma glucose level ([1]; intranasal, insulin 10 U/Kg, α-cyclodextrin 5%, 1 hr.): 59.4%
- Change (%) in plasma glucose level ([1]; intranasal, insulin 10 U/Kg, α-cyclodextrin 5%, 2 hr.): 46.8%
- Change (%) in plasma glucose level ([1]; intranasal, insulin 10 U/Kg, α-cyclodextrin 5%, 4 hr.): 54.4%
- Change (%) in plasma glucose level ([1]; intranasal, insulin 10 U/Kg, α-cyclodextrin 10%, 1 hr.): 33.8%
- Change (%) in plasma glucose level ([1]; intranasal, insulin 10 U/Kg, α-cyclodextrin 10%, 2 hr.): 24.8%
- Change (%) in plasma glucose level ([1]; intranasal, insulin 10 U/Kg, α-cyclodextrin 10%, 4 hr.): 40.3%
- Change (%) in plasma glucose level ([1]; intranasal, insulin 10 U/Kg, β-cyclodextrin 10% (suspension), 1 hr.): 62.5%
- Change (%) in plasma glucose level ([1]; intranasal, insulin 10 U/Kg, β-cyclodextrin 10% (suspension), 2 hr.): 48.6%
- Change (%) in plasma glucose level ([1]; intranasal, insulin 10 U/Kg, β-cyclodextrin 10% (suspension), 4 hr.): 49.7%
- Change (%) in plasma glucose level ([1]; intranasal, insulin 10 U/Kg, γ-cyclodextrin 10%, 1 hr.): 80.0%
- Change (%) in plasma glucose level ([1]; intranasal, insulin 10 U/Kg, γ-cyclodextrin 10%, 2 hr.): 81.0%
- Change (%) in plasma glucose level ([1]; intranasal, insulin 10 U/Kg, γ-cyclodextrin 10%, 4 hr.): 74.2%
- Change (%) in plasma glucose level ([1]; intranasal, insulin 20 U/Kg, no cyclodextrin, 1 hr.): 92.4%
- Change (%) in plasma glucose level ([1]; intranasal, insulin 20 U/Kg, no cyclodextrin, 2 hr.): 90.6%
- Change (%) in plasma glucose level ([1]; intranasal, insulin 20 U/Kg, no cyclodextrin, 4 hr.): 99.9%
- Change (%) in plasma glucose level ([1]; intranasal, insulin 20 U/Kg, α-cyclodextrin 5%, 1 hr.): 64.3%
- Change (%) in plasma glucose level ([1]; intranasal, insulin 20 U/Kg, α-cyclodextrin 5%, 2 hr.): 38.4%
- Change (%) in plasma glucose level ([1]; intranasal, insulin 20 U/Kg, α-cyclodextrin 5%, 4 hr.): 47.9%
- Change (%) in plasma glucose level ([1]; intravenous, insulin 5 U/Kg, no cyclodextrin, 1 hr.): 29.6%
- Change (%) in plasma glucose level ([1]; intravenous, insulin 5 U/Kg, no cyclodextrin, 2 hr.): 31.6%
- Change (%) in plasma glucose level ([1]; intravenous, insulin 5 U/Kg, no cyclodextrin, 4 hr.): 41.7%
- Change (%) in plasma glucose level ([2]; 5% (w/w) α-cyclodextrin, 0.5 hr.): 93.1%
- Change (%) in plasma glucose level ([2]; 5% (w/w) α-cyclodextrin, 1 hr.): 61.1%
- Change (%) in plasma glucose level ([2]; 5% (w/w) α-cyclodextrin, 1.5 hr.): 63.5%
- Change (%) in plasma glucose level ([2]; 5% (w/w) α-cyclodextrin, 2 hr.): 86.1%
- Change (%) in plasma glucose level ([2]; 5% (w/w) α-cyclodextrin, 3 hr.): 93.4%
- Change (%) in plasma glucose level ([2]; 5% (w/w) β-cyclodextrin, 0.5 hr.): 87.1%
- Change (%) in plasma glucose level ([2]; 5% (w/w) β-cyclodextrin, 1 hr.): 81.5%
- Change (%) in plasma glucose level ([2]; 5% (w/w) β-cyclodextrin, 1.5 hr.): 80.1%
- Change (%) in plasma glucose level ([2]; 5% (w/w) β-cyclodextrin, 2 hr.): 92.5%
- Change (%) in plasma glucose level ([2]; 5% (w/w) β-cyclodextrin, 3 hr.): 100.4%
- Change (%) in plasma glucose level ([2]; no cyclodextrin, 0.5 hr.): 98.1%
- Change (%) in plasma glucose level ([2]; no cyclodextrin, 1 hr.): 94.1%
- Change (%) in plasma glucose level ([2]; no cyclodextrin, 1.5 hr.): 97.4%
- Change (%) in plasma glucose level ([2]; no cyclodextrin, 2 hr.): 98.1%
- Change (%) in plasma glucose level ([2]; no cyclodextrin, 3 hr.): 102.5%
- Plasma glucose level (%) ([3]; intravaginal (5% α-CD), insulin 20 Unit/kg, 0.5 hour): 66.5%
- Plasma glucose level (%) ([3]; intravaginal (5% α-CD), insulin 20 Unit/kg, 1 hour): 52.7%
- Plasma glucose level (%) ([3]; intravaginal (5% α-CD), insulin 20 Unit/kg, 2 hour): 40.0%
- Plasma glucose level (%) ([3]; intravaginal (5% α-CD), insulin 20 Unit/kg, 3 hour): 33.7%
- Plasma glucose level (%) ([3]; intravaginal (5% α-CD), insulin 20 Unit/kg, 4 hour): 31.4%
- Plasma glucose level (%) ([3]; intravaginal (5% α-CD), insulin 20 Unit/kg, 6 hour): 41.5%
- Plasma glucose level (%) ([3]; intravaginal (physiological saline), insulin 20 Unit/kg, no cyclodextrin, 0.5 hour): 80.7%
- Plasma glucose level (%) ([3]; intravaginal (physiological saline), insulin 20 Unit/kg, no cyclodextrin, 1 hour): 75.8%
- Plasma glucose level (%) ([3]; intravaginal (physiological saline), insulin 20 Unit/kg, no cyclodextrin, 2 hour): 77.2%
- Plasma glucose level (%) ([3]; intravaginal (physiological saline), insulin 20 Unit/kg, no cyclodextrin, 3 hour): 74.2%
- Plasma glucose level (%) ([3]; intravaginal (physiological saline), insulin 20 Unit/kg, no cyclodextrin, 4 hour): 66.9%
- Plasma glucose level (%) ([3]; intravaginal (physiological saline), insulin 20 Unit/kg, no cyclodextrin, 6 hour): 67.8%
- pharmacological effect versus control vaginal administration group ([3]; intravaginal, insulin 20 units/kg, 5% α-cyclodextrin): almost doubled
- reduction in the area under the plasma glucose level-time curve within 6 hours after administration ([3]; intravaginal, insulin 20 units/kg, 5% α-cyclodextrin (invention group)): 339.9±11.2 %×hour
- reduction in the area under the plasma glucose level-time curve within 6 hours after administration ([3]; intravaginal, insulin 20 units/kg, no cyclodextrin (control group)): 158.2±29.6 %×hour
- Plasma glucose level (%) ([3]; subcutaneous, insulin 5 Unit/kg, no cyclodextrin, 0.5 hour): 67.0%
- Plasma glucose level (%) ([3]; subcutaneous, insulin 5 Unit/kg, no cyclodextrin, 1 hour): 54.7%
- Plasma glucose level (%) ([3]; subcutaneous, insulin 5 Unit/kg, no cyclodextrin, 2 hour): 42.2%
- Plasma glucose level (%) ([3]; subcutaneous, insulin 5 Unit/kg, no cyclodextrin, 3 hour): 35.1%
- Plasma glucose level (%) ([3]; subcutaneous, insulin 5 Unit/kg, no cyclodextrin, 4 hour): 37.5%
- Plasma glucose level (%) ([3]; subcutaneous, insulin 5 Unit/kg, no cyclodextrin, 6 hour): 74.1%
- Change (%) in plasma glucose level ([4]; 5% (w/v) α-cyclodextrin, 0.5 hr.): 92.9%
- Change (%) in plasma glucose level ([4]; 5% (w/v) α-cyclodextrin, 1 hr.): 39.1%
- Change (%) in plasma glucose level ([4]; 5% (w/v) α-cyclodextrin, 1.5 hr.): 39.6%
- Change (%) in plasma glucose level ([4]; 5% (w/v) α-cyclodextrin, 2 hr.): 69.6%
- Change (%) in plasma glucose level ([4]; 5% (w/v) β-cyclodextrin, 0.5 hr.): 94.3%
- Change (%) in plasma glucose level ([4]; 5% (w/v) β-cyclodextrin, 1 hr.): 70.1%
- Change (%) in plasma glucose level ([4]; 5% (w/v) β-cyclodextrin, 1.5 hr.): 76.3%
- Change (%) in plasma glucose level ([4]; 5% (w/v) β-cyclodextrin, 2 hr.): 90.1%
- Change (%) in plasma glucose level ([4]; 5% (w/v) γ-cyclodextrin, 0.5 hr.): 94.8%
- Change (%) in plasma glucose level ([4]; 5% (w/v) γ-cyclodextrin, 1 hr.): 79.0%
- Change (%) in plasma glucose level ([4]; 5% (w/v) γ-cyclodextrin, 1.5 hr.): 81.3%
- Change (%) in plasma glucose level ([4]; 5% (w/v) γ-cyclodextrin, 2 hr.): 93.0%
- Change (%) in plasma glucose level ([4]; no cyclodextrin, 0.5 hr.): 102.2%
- Change (%) in plasma glucose level ([4]; no cyclodextrin, 1 hr.): 86.0%
- Change (%) in plasma glucose level ([4]; no cyclodextrin, 1.5 hr.): 95.2%
- Change (%) in plasma glucose level ([4]; no cyclodextrin, 2 hr.): 121.9%
